We go through 15 molecules from patent publication US20140170110A1, “PYRIDIN-2(1H)-ONE DERIVATIVES USEFUL AS MEDICAMENTS FOR THE TREATMENT OF MYELOPROLIFERATIVE DISORDERS, TRANSPLANT REJECTION, IMMUNE-MEDIATED AND INFLAMMATORY DISEASES” (ALMIRALL, S.A., priority 2011, published 2014).

Common to all, as to assay type: biochemical
One test has as its target T1, human JAK2 (aa 826-1132) (Homo sapiens, UniProt O60674).
T1 construct: JAK2 (aa 826-1132); GST (N); purchased Carna Biosciences; host or cells: baculovirus expression system
Briefly: In vitro JAK kinase assay (TR-FRET), JAK2. As to conditions: catalytic domain GST-fusion; ATP 0.2 μM; poly (GT)-Biotin 20 nM; 30 minutes at room temperature. How it is done: (§1) Compounds were screened for their ability to inhibit JAK1, JAK2 and JAK3 using the assays as indicated below.
(§2) The enzymatic activity was assayed using as substrate a biotinylated peptide, poly (GT)-Biotin (CisBio). […] The degree of phosphorylation was detected by TR-FRET (time-resolved fluorescence energy transfer).
(§3) The enzymatic reactions took place for 30 minutes at room temperature. […] Incubate for 3 h and read on Victor 2V spectrofluorometer (PerkinElmer) set to read fluorescence resonance energy transfer.

A further test addresses T2, human JAK1 (aa 850-1154) (Homo sapiens, UniProt P23458).
T2 construct: human JAK1 (aa 850-1154); GST (N); purchased Carna Biosciences; host or cells: baculovirus expression system
The test is described as follows: In vitro JAK kinase assay (TR-FRET), JAK1. The conditions noted are these: catalytic domain GST-fusion; ATP 3 μM; poly (GT)-Biotin 60 nM; 30 minutes at room temperature. Here is the method: as §1, §2, §3

In the next test the target is T3, human JAK3 (aa 795-1124) (Homo sapiens, UniProt P52333).
T3 construct: JAK3 (aa 795-1124); GST (N); purchased Carna Biosciences; host or cells: baculovirus expression system
Briefly: In vitro JAK kinase assay (TR-FRET), JAK3. As to conditions: catalytic domain GST-fusion; ATP 0.6 μM; poly (GT)-Biotin 140 nM; 30 minutes at room temperature. How it is done:
as §1, §2, §3

SMILES strings stand for the structures.

T2 sequence (P23458 850-1154): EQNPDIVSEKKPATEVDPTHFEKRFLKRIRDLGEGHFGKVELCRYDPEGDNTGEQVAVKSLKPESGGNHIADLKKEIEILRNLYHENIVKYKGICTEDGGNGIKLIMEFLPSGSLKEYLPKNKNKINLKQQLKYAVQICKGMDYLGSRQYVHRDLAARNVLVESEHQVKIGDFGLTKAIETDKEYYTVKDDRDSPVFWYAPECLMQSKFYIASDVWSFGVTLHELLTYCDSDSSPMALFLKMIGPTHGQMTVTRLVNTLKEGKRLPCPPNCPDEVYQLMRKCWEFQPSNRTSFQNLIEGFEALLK
T3 sequence (P52333 795-1124): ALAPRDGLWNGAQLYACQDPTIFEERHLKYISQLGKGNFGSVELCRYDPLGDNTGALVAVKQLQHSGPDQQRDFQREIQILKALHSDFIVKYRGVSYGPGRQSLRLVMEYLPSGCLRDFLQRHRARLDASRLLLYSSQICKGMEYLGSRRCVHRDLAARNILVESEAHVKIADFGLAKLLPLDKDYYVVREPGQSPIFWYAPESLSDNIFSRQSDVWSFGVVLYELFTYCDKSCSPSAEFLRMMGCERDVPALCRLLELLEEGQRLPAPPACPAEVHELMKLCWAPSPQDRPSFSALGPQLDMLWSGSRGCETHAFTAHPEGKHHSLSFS
T1 sequence (O60674 826-1132): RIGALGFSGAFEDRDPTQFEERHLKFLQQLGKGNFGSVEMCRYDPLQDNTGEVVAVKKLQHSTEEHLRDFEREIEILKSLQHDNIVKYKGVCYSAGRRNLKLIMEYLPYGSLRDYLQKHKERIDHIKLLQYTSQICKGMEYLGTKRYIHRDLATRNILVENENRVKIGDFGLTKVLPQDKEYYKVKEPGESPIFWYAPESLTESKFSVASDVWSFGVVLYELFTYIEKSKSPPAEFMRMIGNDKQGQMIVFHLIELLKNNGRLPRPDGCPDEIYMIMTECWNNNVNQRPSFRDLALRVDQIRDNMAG

As for `O=c1[nH]nc(Cl)cc1Nc1ncc2[nH]c(=O)n(C3CCOCC3)c2n1` [Example 54, 2-(6-Chloro-3-oxo-2,3-dihydropyridazin-4-ylamino)-9-(tetrahydro-2H-pyran-4-yl)-7H-purin-8(9H)-one], the IC50 at human JAK2 (aa 826-1132) was 100 to 1000 nM; at human JAK1 (aa 850-1154), 100 to 1000 nM; against human JAK3 (aa 795-1124), below 100 nM.

Take `C[C@H](c1ncc(F)cn1)n1c(=O)[nH]c2cnc(Nc3cnc[nH]c3=O)nc21` [Example 52, (R)-9-(1-(5-Fluoropyrimidin-2-yl)ethyl)-2-(6-oxo-1,6-dihydropyrimidin-5-ylamino)-7H-purin-8(9H)-one]: the IC50 was below 100 nM against human JAK2 (aa 826-1132), above 1000 nM against human JAK1 (aa 850-1154) and 100 to 1000 nM at human JAK3 (aa 795-1124).

As for `O=c1[nH]cncc1Nc1ncc2[nH]c(=O)n(C3CCOCC3)c2n1` [Example 51, 2-(6-Oxo-1,6-dihydropyrimidin-5-ylamino)-9-(tetrahydro-2H-pyran-4-yl)-7H-purin-8(9H)-one], the IC50 against human JAK2 (aa 826-1132), on human JAK1 (aa 850-1154) and at human JAK3 (aa 795-1124) was 100 to 1000 nM each time.

`O=c1[nH]cccc1Nc1ncc2[nH]c(=O)n(C3CCCCC3)c2n1` [Example 14, 9-Cyclohexyl-2-(2-oxo-1,2-dihydropyridin-3-ylamino)-7H-purin-8(9H)-one]: the IC50 on human JAK2 (aa 826-1132), on human JAK1 (aa 850-1154) and against human JAK3 (aa 795-1124) was below 100 nM throughout.

Consider `O=c1[nH]cc(C(F)F)cc1Nc1ncc2[nH]c(=O)n(C3CCOCC3)c2n1` [Example 5, 2-(5-(Difluoromethyl)-2-oxo-1,2-dihydropyridin-3-ylamino)-9-(tetrahydro-2H-pyran-4-yl)-7H-purin-8(9H)-one], for which the IC50 against human JAK2 (aa 826-1132), against human JAK1 (aa 850-1154) and against human JAK3 (aa 795-1124) was below 100 nM in each case.

In the case of `O=c1[nH]cccc1Nc1nc2c(cc1F)[nH]c(=O)n2C1CCOCC1` [Example 49, 6-Fluoro-5-(2-oxo-1,2-dihydropyridin-3-ylamino)-3-(tetrahydro-2H-pyran-4-yl)-1H-imidazo[4,5-b]pyridin-2(3H)-one], the values for the IC50 against human JAK2 (aa 826-1132), against human JAK1 (aa 850-1154) and on human JAK3 (aa 795-1124) were below 100 nM, 100 to 1000 nM and below 100 nM, respectively.

For `O=c1[nH]cccc1Nc1ncc2c(n1)n(C1CCOCC1)c(=O)n2CCO` [Example 46, 7-(2-Hydroxyethyl)-2-(2-oxo-1,2-dihydropyridin-3-ylamino)-9-(tetrahydro-2H-pyran-4-yl)-7H-purin-8(9H)-one], the figures for the IC50 against human JAK2 (aa 826-1132), at human JAK1 (aa 850-1154) and against human JAK3 (aa 795-1124) were below 100 nM, 100 to 1000 nM and below 100 nM, respectively.

In the case of `O=c1[nH]cccc1Nc1ncc2[nH]c(=O)n([C@@H]3CC=Cc4ccccc43)c2n1` [Example 31, (R)-9-(1,2-Dihydronaphthalen-1-yl)-2-(2-oxo-1,2-dihydropyridin-3-ylamino)-7H-purin-8(9H)-one], the IC50 was below 100 nM at human JAK2 (aa 826-1132), 100 to 1000 nM against human JAK1 (aa 850-1154) and below 100 nM against human JAK3 (aa 795-1124).

With `O=c1[nH]cccc1Nc1nc(N2CCOCC2)c2[nH]c(=O)n(C3CCOCC3)c2n1` [Example 50, 6-Morpholino-2-(2-oxo-1,2-dihydropyridin-3-ylamino)-9-(tetrahydro-2H-pyran-4-yl)-7H-purin-8(9H)-one], the IC50 is below 100 nM on human JAK2 (aa 826-1132), above 1000 nM against human JAK1 (aa 850-1154) and below 100 nM against human JAK3 (aa 795-1124).

With `O=c1[nH]cccc1Nc1ncc2[nH]c(=O)n(C3CCSCC3)c2n1` [Example 12, 2-(2-Oxo-1,2-dihydropyridin-3-ylamino)-9-(tetrahydro-2H-thiopyran-4-yl)-7H-purin-8(9H)-one], the IC50 is below 100 nM at human JAK2 (aa 826-1132), 100 to 1000 nM at human JAK1 (aa 850-1154) and below 100 nM against human JAK3 (aa 795-1124).

As for `N#C[C@@H]1CCCC[C@H]1n1c(=O)[nH]c2cnc(Nc3ccc[nH]c3=O)nc21` (relative stereo) [Example 23, trans-2-(8-Oxo-2-(2-oxo-1,2-dihydropyridin-3-ylamino)-7H-purin-9(8H)-yl)cyclo hexanecarbonitrile], the IC50 was below 100 nM against human JAK2 (aa 826-1132), 100 to 1000 nM against human JAK1 (aa 850-1154) and below 100 nM on human JAK3 (aa 795-1124).

Take `O=c1[nH]cccc1Nc1ncc2[nH]c(=O)n([C@H]3CC[C@@H](n4cncn4)CC3)c2n1` [Example 22, 9-((1s,4s)-4-(1H-1,2,4-Triazol-1-yl)cyclohexyl)-2-(2-oxo-1,2-dihydropyridin-3-ylamino)-7H-purin-8(9H)-one]: the values for the IC50 on human JAK2 (aa 826-1132), at human JAK1 (aa 850-1154) and at human JAK3 (aa 795-1124) were below 100 nM, 100 to 1000 nM and below 100 nM, respectively.

For `CS(=O)(=O)C[C@H]1CC[C@H](n2c(=O)[nH]c3cnc(Nc4ccc[nH]c4=O)nc32)CC1` [Example 39, 9-((1r,4r)-4-(Methylsulfonylmethyl)cyclohexyl)-2-(2-oxo-1,2-dihydropyridin-3-ylamino)-7H-purin-8(9H)-one], the IC50 is below 100 nM on human JAK2 (aa 826-1132), 100 to 1000 nM at human JAK1 (aa 850-1154) and 100 to 1000 nM against human JAK3 (aa 795-1124).

For `O=c1[nH]cccc1Nc1ncc2[nH]c(=O)n([C@@H]3CCCC[C@@H]3CO)c2n1` (relative stereo) [Example 21, 9-(cis-2-(Hydroxymethyl)cyclohexyl)-2-(2-oxo-1,2-dihydropyridin-3-ylamino)-7H-purin-8(9H)-one], the IC50 at human JAK2 (aa 826-1132) is below 100 nM; on human JAK1 (aa 850-1154), 100 to 1000 nM; at human JAK3 (aa 795-1124) it was below 100 nM.

As to `O=c1[nH]cccc1Nc1ncc2[nH]c(=O)n(C3CCOCC3)c2n1` [Example 1, 2-(2-Oxo-1,2-dihydropyridin-3-ylamino)-9-(tetrahydro-2H-pyran-4-yl)-7H-purin-8(9H)-one], the values for the IC50 against human JAK2 (aa 826-1132), against human JAK1 (aa 850-1154) and against human JAK3 (aa 795-1124) were below 100 nM, 100 to 1000 nM and below 100 nM, respectively.
